Measurements taken from patent US9062124B2, “GIP-based mixed agonists for treatment of metabolic disorders and obesity” (priority 2008, dated 2015).
Where a SMILES comes first, the peptide text is derived from it. Bridges are numbered along the chain shown (N, C = ends). Where no end group is shown, it is not given here. [ ]: non-standard residue; d: D form. PEG 40 kDa = PEG (40 kDa) covalently attached to Cys; Aib = CC(C)(N)C(=O)O

How the values were obtained:
Type in all cases: cell-based
GLP-1 receptor = target: T1, GLP-1 receptor (Homo sapiens, UniProt P43220); assay: cAMP synthesis functional assay (firefly luciferase reporter in HEK293 cells), GLP-1 receptor; conditions: for GLP-1 Receptor relative activity: Table 1, relative to the native hormone of the indicated receptor
T1 construct: expressed in transfected cells; host or cells: HEK293

glucagon receptor = target: T2, glucagon receptor (Homo sapiens, UniProt P47871); assay: cAMP synthesis functional assay (firefly luciferase reporter in HEK293 cells), glucagon receptor; conditions: for Glucagon Receptor relative activity: relative to the native hormone of the indicated receptor
T2 construct: expressed in transfected cells; host or cells: HEK293

GIP receptor = target: T3, GIP receptor (Homo sapiens, UniProt P48546); assay: cAMP synthesis functional assay (firefly luciferase reporter in HEK293 cells), GIP receptor; conditions: Table 1; for GIP Receptor relative activity: relative to the native hormone of the indicated receptor
T3 construct: expressed in transfected cells; host or cells: HEK293
T3 sequence (P48546 22-466): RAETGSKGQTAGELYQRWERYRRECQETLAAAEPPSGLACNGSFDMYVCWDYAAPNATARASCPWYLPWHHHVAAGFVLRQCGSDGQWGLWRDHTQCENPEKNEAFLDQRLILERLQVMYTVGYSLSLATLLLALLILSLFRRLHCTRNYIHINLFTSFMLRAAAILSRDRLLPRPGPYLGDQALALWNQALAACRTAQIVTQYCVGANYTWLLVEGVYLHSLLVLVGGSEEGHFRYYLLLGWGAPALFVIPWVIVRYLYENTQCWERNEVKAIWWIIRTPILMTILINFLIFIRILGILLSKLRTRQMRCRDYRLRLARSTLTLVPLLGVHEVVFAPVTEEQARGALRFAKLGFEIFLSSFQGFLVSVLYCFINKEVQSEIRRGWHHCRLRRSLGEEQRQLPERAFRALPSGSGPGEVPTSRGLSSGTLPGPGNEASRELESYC

[1] = Glucagon Receptor EC50, nM, Table 1

T1 sequence (P43220 24-463, species assumed): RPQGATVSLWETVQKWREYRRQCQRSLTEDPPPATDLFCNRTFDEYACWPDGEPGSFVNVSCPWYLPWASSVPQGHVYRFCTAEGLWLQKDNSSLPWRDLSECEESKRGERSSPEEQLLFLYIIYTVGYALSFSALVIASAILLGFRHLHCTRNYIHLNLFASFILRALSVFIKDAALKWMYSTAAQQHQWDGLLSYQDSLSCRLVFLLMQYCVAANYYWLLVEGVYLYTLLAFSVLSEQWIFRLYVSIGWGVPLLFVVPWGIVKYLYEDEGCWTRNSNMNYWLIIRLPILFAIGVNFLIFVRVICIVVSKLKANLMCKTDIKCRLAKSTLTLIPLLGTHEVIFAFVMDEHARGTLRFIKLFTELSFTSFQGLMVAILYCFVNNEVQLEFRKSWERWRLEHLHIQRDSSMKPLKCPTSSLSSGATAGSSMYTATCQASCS
T2 sequence (P47871 26-477): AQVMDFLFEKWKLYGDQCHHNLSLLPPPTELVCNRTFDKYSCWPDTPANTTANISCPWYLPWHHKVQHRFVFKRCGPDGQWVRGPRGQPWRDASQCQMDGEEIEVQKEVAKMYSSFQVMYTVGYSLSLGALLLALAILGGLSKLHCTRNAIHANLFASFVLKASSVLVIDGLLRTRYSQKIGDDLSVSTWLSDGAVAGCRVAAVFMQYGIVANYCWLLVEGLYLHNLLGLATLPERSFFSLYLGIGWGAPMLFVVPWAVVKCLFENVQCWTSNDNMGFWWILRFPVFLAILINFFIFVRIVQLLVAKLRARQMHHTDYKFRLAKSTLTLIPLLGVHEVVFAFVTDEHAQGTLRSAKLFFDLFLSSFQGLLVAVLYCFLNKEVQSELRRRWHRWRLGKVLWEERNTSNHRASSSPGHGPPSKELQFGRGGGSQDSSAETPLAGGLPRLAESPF

| GLP-1 Receptor relative activity (GLP-1 receptor) [%] | EC50 (glucagon receptor; [1]) [nM] | Glucagon Receptor relative activity (glucagon receptor; Table 1) [%] | GIP Receptor relative activity (GIP receptor) [%] | EC50 (GIP receptor; GIP Receptor EC50, nM) [nM] | Compound | EC50 (GLP-1 receptor; GLP-1 Receptor EC50, cAMP luciferase reporter assay as in Example 16) [nM] | EC50 (glucagon receptor; Glucagon Receptor EC50, cAMP luciferase reporter assay as in Example 16) [nM] |
| --- | --- | --- | --- | --- | --- | --- | --- |
| 22.22 | 0.11 | 172.73 | 0.83 |  | CC[C@H](C)[C@H](NC(=O)[C@H](Cc1ccccc1)NC(=O)[C@H](CCC(=O)O)NC(=O)[C@@H]1CCCCNC(=O)CC[C@H](NC(=O)[C@H](CC(=O)O)NC(=O)[C@H](CC(C)C)NC(=O)[C@H](Cc2ccc(O)cc2)NC(=O)[C@H](CCCCN)NC(=O)[C@H](CO)NC(=O)[C@H](Cc2ccc(O)cc2)NC(=O)[C@H](CC(=O)O)NC(=O)[C@H](CO)NC(=O)[C@@H](NC(=O)[C@H](Cc2ccccc2)NC(=O)[C@@H](NC(=O)CNC(=O)[C@H](CCC(N)=O)NC(=O)[C@H](CO)NC(=O)[C@@H](N)Cc2c[nH]cn2)[C@@H](C)O)[C@@H](C)O)C(=O)N[C@@H]([C@@H](C)CC)C(=O)N[C@@H](Cc2c[nH]cn2)C(=O)N[C@@H](CCC(N)=O)C(=O)N1)C(=O)N[C@@H](C)C(=O)N[C@@H](Cc1c[nH]c2ccccc12)C(=O)N[C@@H](CC(C)C)C(=O)N[C@@H](CCSC)C(=O)N[C@@H](CC(N)=O)C(=O)N[C@H](C(N)=O)[C@@H](C)O [mt-61] |  |  |
| 40.00 | 0.45 | 42.22 | 1.60 |  | CC[C@H](C)[C@H](NC(=O)[C@H](Cc1ccccc1)NC(=O)[C@H](CCC(=O)O)NC(=O)[C@@H]1CCCCNC(=O)CC[C@H](NC(=O)[C@H](CC(=O)O)NC(=O)[C@H](CC(C)C)NC(=O)[C@H](Cc2ccc(O)cc2)NC(=O)[C@@H](NC(=O)[C@H](CO)NC(=O)[C@H](Cc2ccc(O)cc2)NC(=O)[C@H](CC(=O)O)NC(=O)[C@H](CO)NC(=O)[C@@H](NC(=O)[C@H](Cc2ccccc2)NC(=O)[C@@H](NC(=O)CNC(=O)[C@H](CCC(N)=O)NC(=O)[C@H](CO)NC(=O)[C@@H](N)Cc2c[nH]cn2)[C@@H](C)O)[C@@H](C)O)[C@@H](C)CC)C(=O)N[C@@H]([C@@H](C)CC)C(=O)N[C@@H](Cc2c[nH]cn2)C(=O)N[C@@H](CCC(N)=O)C(=O)N1)C(=O)N[C@@H](C)C(=O)N[C@@H](Cc1c[nH]c2ccccc12)C(=O)N[C@@H](CC(C)C)C(=O)N[C@@H](CCSC)C(=O)N[C@@H](CC(N)=O)C(=O)N[C@H](C(N)=O)[C@@H](C)O [mt-62] (H-HSQGTFTSDYSIYLDEIHQKEFIAWLMNT-NH2; lactam 16-20; N-terminus assumed) |  |  |
| 12.20 | 0.16 | 162.50 | 0.57 | 14.6 | CC[C@H](C)[C@H](NC(=O)[C@H](Cc1ccccc1)NC(=O)[C@H](CCC(=O)O)NC(=O)[C@@H]1CCC(=O)NCCCC[C@H](NC(=O)[C@H](CC(=O)O)NC(=O)[C@H](CC(C)C)NC(=O)[C@H](Cc2ccc(O)cc2)NC(=O)[C@H](CCCCN)NC(=O)[C@H](CO)NC(=O)[C@H](Cc2ccc(O)cc2)NC(=O)[C@H](CC(=O)O)NC(=O)[C@H](CO)NC(=O)[C@@H](NC(=O)[C@H](Cc2ccccc2)NC(=O)[C@@H](NC(=O)CNC(=O)[C@H](CCC(N)=O)NC(=O)[C@H](CO)NC(=O)[C@@H](N)Cc2c[nH]cn2)[C@@H](C)O)[C@@H](C)O)C(=O)N[C@@H]([C@@H](C)CC)C(=O)N[C@@H](Cc2c[nH]cn2)C(=O)N[C@@H](CCC(N)=O)C(=O)N1)C(=O)N[C@@H](C)C(=O)N[C@@H](Cc1c[nH]c2ccccc12)C(=O)N[C@@H](CC(C)C)C(=O)N[C@@H](CCSC)C(=O)N[C@@H](CC(N)=O)C(=O)N[C@H](C(N)=O)[C@@H](C)O [mt-69] (H-HSQGTFTSDYSKYLDKIHQEEFIAWLMNT-NH2; lactam 16-20; N-terminus assumed) |  |  |
| 0.08 |  | 0.04 | 10.54 |  | CC[C@H](C)[C@H](NC(=O)[C@H](CO)NC(=O)[C@H](Cc1ccc(O)cc1)NC(=O)[C@H](CC(=O)O)NC(=O)[C@H](CO)NC(=O)[C@@H](NC(=O)[C@H](Cc1ccccc1)NC(=O)[C@@H](NC(=O)CNC(=O)[C@H](CCC(=O)O)NC(=O)[C@H](C)NC(=O)[C@@H](N)Cc1c[nH]cn1)[C@@H](C)O)[C@@H](C)CC)C(=O)N[C@@H](C)C(=O)N[C@@H](CCSC)C(=O)N[C@@H](CC(=O)O)C(=O)N[C@H]1CCC(=O)NCCCC[C@@H](C(=O)N[C@@H](CC(=O)O)C(=O)N[C@@H](Cc2ccccc2)C(=O)N[C@H](C(=O)N[C@@H](CC(N)=O)C(=O)N[C@@H](Cc2c[nH]c3ccccc23)C(=O)N[C@@H](CC(C)C)C(=O)N[C@@H](CC(C)C)C(=O)N[C@@H](C)C(=O)N[C@@H](CCC(N)=O)C(N)=O)C(C)C)NC(=O)[C@H](CCC(N)=O)NC(=O)[C@H](Cc2c[nH]cn2)NC(=O)[C@H]([C@@H](C)CC)NC1=O [mt-95] (H-HAEGTFISDYSIAMDEIHQKDFVNWLLAQ-NH2; lactam 16-20; N-terminus assumed) |  |  |
| 0.07 |  | 0.13 |  |  | CC[C@H](C)[C@H](NC(=O)[C@H](CO)NC(=O)[C@H](Cc1ccc(O)cc1)NC(=O)[C@H](CC(=O)O)NC(=O)[C@H](CO)NC(=O)[C@@H](NC(=O)[C@H](Cc1ccccc1)NC(=O)[C@@H](NC(=O)CN)[C@@H](C)O)[C@@H](C)O)C(=O)N[C@@H](Cc1ccc(O)cc1)C(=O)N[C@@H](CC(C)C)C(=O)N[C@@H](CC(=O)O)C(=O)N[C@H]1CCC(=O)NCCCC[C@@H](C(=O)N[C@@H](CCC(=O)O)C(=O)N[C@@H](Cc2ccccc2)C(=O)N[C@H](C(=O)N[C@@H](CC(N)=O)C(=O)N[C@@H](Cc2c[nH]c3ccccc23)C(=O)N[C@@H](CC(C)C)C(=O)N[C@@H](CC(C)C)C(=O)N[C@@H](C)C(=O)NCC(N)=O)C(C)C)NC(=O)[C@H](C)NC(=O)[C@H](C)NC(=O)[C@H](CCC(N)=O)NC1=O [mt-197] (H-GTFTSDYSIYLDEQAAKEFVNWLLAG-NH2; lactam 13-17; N-terminus assumed) |  |  |
|  |  |  |  |  | CC[C@H](C)[C@H](NC(=O)[C@H](CO)NC(=O)[C@H](Cc1ccc(O)cc1)NC(=O)[C@H](CC(=O)O)NC(=O)[C@H](CO)NC(=O)[C@@H](NC(=O)[C@H](Cc1ccccc1)NC(=O)[C@@H](NC(=O)CNC(=O)[C@H](CCC(=O)O)NC(=O)C(C)(C)NC(=O)[C@@H](N)Cc1ccc(O)cc1)[C@@H](C)O)[C@@H](C)O)C(=O)N[C@@H](Cc1ccc(O)cc1)C(=O)N[C@@H](CC(C)C)C(=O)N[C@@H](CC(=O)O)C(=O)N[C@@H](CCCCN)C(=O)N[C@@H](CCC(N)=O)C(=O)N[C@@H](C)C(=O)N[C@@H](C)C(=O)NC(C)(C)C(=O)N[C@@H](CCC(=O)O)C(=O)N[C@@H](Cc1ccccc1)C(=O)N[C@H](C(=O)N[C@@H](CCCCN)C(=O)N[C@@H](Cc1c[nH]c2ccccc12)C(=O)N[C@@H](CC(C)C)C(=O)N[C@@H](CC(C)C)C(=O)N[C@@H](C)C(=O)NCC(=O)NCC(=O)N1CCC[C@H]1C(=O)N[C@@H](CO)C(=O)N[C@@H](CO)C(=O)NCC(=O)N[C@@H](C)C(=O)N1CCC[C@H]1C(=O)N1CCC[C@H]1C(=O)N1CCC[C@H]1C(=O)N[C@@H](CO)C(N)=O)C(C)C [mt-268] | 0.0155 | 6.5 |
| 38.46 |  | 13.00 |  |  | HSQGTFTSDYSKYLDEIHQKEFIAWLLAQ-NH2 [mt-66] |  |  |
| 6.10 | 1.97 | 13.20 |  |  | HSQGTFTSDYSKYLDKIHQEEFIAWLMNT-NH2 [mt-68] |  |  |
| 0.02 |  | 0.11 |  |  | YAEGTFISDYSIAMDKIHQQDFVNWLLAQ-NH2 [mt-106] |  |  |
|  |  |  | 0.22 |  | YAPGTFISDYSIAMDKIHQQDFVCWLLAQKGKKNWLKHNITQ-NH2 [mt-104] |  |  |
|  |  |  | 0.06 |  | YAPGTFISDYSIAMDKIHQQDFVNWLLAQKGKKNWLKHNITQ-NH2 [mt-101] |  |  |
| 11.83 |  |  | 4.79 |  | mt-208: glucagon analog peptide, C-terminal amide (Y[Aib]EGTFTSDYSIYLDEQAAKEFVNWLLAGKGKKNWLKHNITQC(PEG 40 kDa)-NH2; lactam 16-20) |  |  |

| Compound | GLP-1 Receptor relative activity (GLP-1 receptor) [%] | EC50 (glucagon receptor; [1]) [nM] | Glucagon Receptor relative activity (glucagon receptor; Table 1) [%] | GIP Receptor relative activity (GIP receptor) [%] | EC50 (GIP receptor; GIP Receptor EC50, nM) [nM] | EC50 (GLP-1 receptor; GLP-1 Receptor EC50, cAMP luciferase reporter assay as in Example 16) [nM] | EC50 (glucagon receptor; Glucagon Receptor EC50, cAMP luciferase reporter assay as in Example 16) [nM] |
| --- | --- | --- | --- | --- | --- | --- | --- |
| CC[C@H](C)[C@H](NC(=O)[C@H](CO)NC(=O)[C@H](Cc1ccc(O)cc1)NC(=O)[C@H](CC(=O)O)NC(=O)[C@H](CO)NC(=O)[C@@H](NC(=O)[C@H](Cc1ccccc1)NC(=O)[C@@H](NC(=O)CNC(=O)[C@H](CCC(=O)O)NC(=O)[C@H](C)NC(=O)[C@@H](N)Cc1ccc(O)cc1)[C@@H](C)O)[C@@H](C)O)C(=O)N[C@@H](Cc1ccc(O)cc1)C(=O)N[C@@H](CCSC)C(=O)N[C@@H](CC(=O)O)C(=O)N[C@H]1CCC(=O)NCCCC[C@@H](C(=O)N[C@@H](CCC(=O)O)C(=O)N[C@@H](Cc2ccccc2)C(=O)N[C@H](C(=O)N[C@@H](CC(N)=O)C(=O)N[C@@H](Cc2c[nH]c3ccccc23)C(=O)N[C@@H](CC(C)C)C(=O)N[C@@H](CC(C)C)C(=O)N[C@@H](C)C(=O)NCC(=O)NCC(=O)N2CCC[C@H]2C(=O)N[C@@H](CO)C(=O)N[C@@H](CO)C(=O)NCC(=O)N[C@@H](C)C(=O)N2CCC[C@H]2C(=O)N2CCC[C@H]2C(=O)N2CCC[C@H]2C(=O)N[C@@H](CO)C(N)=O)C(C)C)NC(=O)[C@H](C)NC(=O)[C@H](C)NC(=O)[C@H](CCC(N)=O)NC1=O [mt-142] (H-YAEGTFTSDYSIYMDEQAAKEFVNWLLAGGPSSGAPPPS-NH2; lactam 16-20; N-terminus assumed) | 163.41 |  |  | 36.36 |  |  |  |
